# Test results taken from publication PMC5748856 (The Journal of Experimental Medicine, 2018).
# Entries after “also recorded” stand apart in the source; their conditions may differ. Ends that are not written are not given here.
# Tests used:
# purified HLA-A*02:01 = purified HLA-A*02:01 (Homo sapiens, UniProt P04439, D140Y/D185E/D98H/E176V/E277Q/G131W/G231S/I119V/I121R/I166T/I218V/L300P/L318F/N151K/N90K/P208A/P217A/Q86G/Q94H/R138H/R169H/T345S); details: for HLA-A*02:01 binding (in words): relative to H3.3K27M, cell-free binding assay, performed once (Fig. 4 A)
# HLA-A*02:03 (human) = assay: radioligand binding
Molecule,HLA-A*02:01 binding (in words) (purified HLA-A*02:01),other results
"RKSAPSTGGV [H3.3WT, reference compound]",,IC50 (purified HLA-A*02:01): > 38700 nM
XMSAPSTGGV [Cit H3.3],partially retains its affinity,
RMSAPATGGV [A6],abrogated; also recorded: diminished,
RMSAPSTGGV [H3.3K27M_(26–35) peptide],,IC50 (HLA-A*02:03 (human)): 747 nM
